Reference: article PMC8634040, “The multi-target aspect of an MmpL3 inhibitor: The BM212 series of compounds bind EthR2, a transcriptional regulator of ethionamide activation” (The Cell Surface, 2021)

How the values were obtained:
EthR2 (Rv0078) = EthR2 (Rv0078) (Mycobacterium tuberculosis, UniProt O53623); assay: biochemical; format: binding
[1] = target: T1, BCG_0174 (SnoaL-like domain-containing, ortholog to Rv0138) (Mycobacterium tuberculosis, UniProt A0A679LAM0); assay: chemoproteomic competition with immobilised GSK569A/GSK574A beads, TMT LC-MS/MS; IC50 […]; format: biochemical
T1 construct: gene BQ2027_MB0143
T1 sequence (A0A679LAM0 entry or part of it): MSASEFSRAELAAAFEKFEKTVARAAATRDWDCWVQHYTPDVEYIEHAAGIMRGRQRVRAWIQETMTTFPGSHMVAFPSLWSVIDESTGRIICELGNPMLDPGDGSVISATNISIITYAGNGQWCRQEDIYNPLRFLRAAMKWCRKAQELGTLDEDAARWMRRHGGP

BCG_0109 (EthR2) = target: T2, BCG_0109 (EthR2) (Mycobacterium tuberculosis, UniProt O53623); assay: as above; format: biochemical
T2 construct: gene Rv0078
T2 sequence (O53623 entry or part of it): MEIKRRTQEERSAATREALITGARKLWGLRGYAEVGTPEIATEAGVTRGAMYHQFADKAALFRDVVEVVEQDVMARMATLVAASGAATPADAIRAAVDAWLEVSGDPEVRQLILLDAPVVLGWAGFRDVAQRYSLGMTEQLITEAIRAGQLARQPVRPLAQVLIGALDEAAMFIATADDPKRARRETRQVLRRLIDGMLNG

Sequence of EthR2 (Rv0078) (O53623 entry or part of it): as above

Row | Compound | Kd (EthR2 (Rv0078)) [nM] | Kd [1] [nM] | Kd (BCG_0109 (EthR2)) [nM]
1 | Cc1c(CN2CCN(C)CC2)cc(-c2ccc(Cl)cc2)n1-c1ccc(Cl)cc1 [BM212, 1-((1,5-bis(4-chlorophenyl)-2-methyl-1H-pyrrol-3-yl)methyl)-4-methylpiperazine] | 660 |  | 
2 | Cc1c(CN2CCN(C)CC2)cc(-c2ccc(C(C)C)cc2)n1-c1ccc(F)cc1 [GSK074A, 1-((1-(4-Fluorophenyl)-5-(4-isopropylphenyl)-2-methyl-1H-pyrrol-3-yl)methyl)-4-methylpiperazine] |  | 7300 | 2900
